Results: ChEMBL document CHEMBL5331140, “Discovery of IACS-52825, a Potent and Selective DLK Inhibitor for Treatment of Chemotherapy-Induced Peripheral Neuropathy” (J Med Chem, 2023)
≈ marks a conversion by molar mass, not a printed value.

How the values were obtained:
[1] = target: T1, Mitogen-activated protein kinase kinase kinase 12 (Homo sapiens, UniProt Q12852); test: Inhibition of doxycycline-inducible human DLK transfected in HEK293 cells assessed as reduction in c-Jun phosphorylation at Ser63 residue incubated for 5 hrs; format: cell-based
T1 sequence (Q12852 whole entry): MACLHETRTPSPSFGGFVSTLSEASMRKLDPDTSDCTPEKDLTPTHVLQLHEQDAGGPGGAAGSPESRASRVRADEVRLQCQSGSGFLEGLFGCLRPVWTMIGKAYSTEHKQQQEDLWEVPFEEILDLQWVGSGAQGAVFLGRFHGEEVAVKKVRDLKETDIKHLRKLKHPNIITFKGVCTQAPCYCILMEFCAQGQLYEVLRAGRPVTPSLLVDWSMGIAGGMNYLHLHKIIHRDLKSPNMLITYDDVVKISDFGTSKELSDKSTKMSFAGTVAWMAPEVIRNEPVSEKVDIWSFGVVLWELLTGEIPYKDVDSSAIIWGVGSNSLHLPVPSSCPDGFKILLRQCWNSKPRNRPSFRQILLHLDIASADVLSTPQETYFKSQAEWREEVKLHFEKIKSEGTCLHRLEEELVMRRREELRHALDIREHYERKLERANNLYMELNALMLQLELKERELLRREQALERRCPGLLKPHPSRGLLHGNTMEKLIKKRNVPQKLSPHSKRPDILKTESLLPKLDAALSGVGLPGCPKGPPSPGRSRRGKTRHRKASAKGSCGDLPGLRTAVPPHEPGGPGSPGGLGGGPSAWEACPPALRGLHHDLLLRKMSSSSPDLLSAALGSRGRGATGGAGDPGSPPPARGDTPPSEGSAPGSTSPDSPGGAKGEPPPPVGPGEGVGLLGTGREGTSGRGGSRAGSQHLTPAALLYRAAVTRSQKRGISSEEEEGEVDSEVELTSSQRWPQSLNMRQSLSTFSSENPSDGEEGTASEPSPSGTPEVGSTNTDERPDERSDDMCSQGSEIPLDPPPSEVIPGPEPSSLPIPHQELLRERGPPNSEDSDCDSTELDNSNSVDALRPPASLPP

[2] = Metabolic stability in human liver microsomes assessed as intrinsic clearance at 1 uM in presence of NADPH regenerating system measured for 45 mins by LC-MS/MS analysis; format: ADME, Microsome; conditions: read-out: CLH
[3] = Volume of distribution at steady state in C57BL/6 mouse at 0.3 mg/kg, iv administered via tail vein and measured for 24 hrs by LC-MS/MS analysis; format: ADME, organism-based; conditions: in vivo, read-out: Vdss
[4] = Cmax in C57BL/6 mouse at 10 mg/kg administered via oral gavage and measured for 24 hrs by LC-MS/MS analysis; format: ADME, organism-based; design: dose 10 mg/kg, time 24 hrs, route po; conditions: in vivo
[5] = Thermodynamic aqueous solubility of compound in FaSSIF at pH 6.5 incubated for 1 hr under shaking condition by LC-MS/MS analysis; format: physicochemical; conditions: read-out: Therm_solubility
[6] = Thermodynamic aqueous solubility of compound in FaSSGF at pH 1.6 incubated for 1 hr under shaking condition by LC-MS/MS analysis; format: physicochemical; conditions: read-out: Therm_solubility
Cytochrome P450 2D6 = Cytochrome P450 2D6 (Homo sapiens, UniProt P10635); test: Inhibition of CYP2D6 in human liver microsomes using bufuralol as substrate incubated for 10 mins in presence of NADPH by LC-MS/MS analysis; format: ADME, Microsome
Cytochrome P450 2D6, sequence (P10635 whole entry): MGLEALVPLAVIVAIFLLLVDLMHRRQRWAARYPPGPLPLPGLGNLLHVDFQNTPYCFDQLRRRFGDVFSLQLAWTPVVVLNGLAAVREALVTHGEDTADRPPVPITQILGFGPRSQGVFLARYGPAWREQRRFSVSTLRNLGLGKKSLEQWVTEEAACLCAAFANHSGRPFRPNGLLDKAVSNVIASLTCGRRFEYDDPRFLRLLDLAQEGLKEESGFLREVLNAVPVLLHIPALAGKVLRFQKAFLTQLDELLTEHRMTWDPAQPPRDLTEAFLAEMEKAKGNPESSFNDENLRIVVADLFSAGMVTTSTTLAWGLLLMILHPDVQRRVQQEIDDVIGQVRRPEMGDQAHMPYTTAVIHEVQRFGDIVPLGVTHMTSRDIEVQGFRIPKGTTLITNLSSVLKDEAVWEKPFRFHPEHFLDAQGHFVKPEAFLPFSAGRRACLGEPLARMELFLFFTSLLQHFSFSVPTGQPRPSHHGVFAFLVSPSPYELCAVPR

Cytochrome P450 2C19 = Cytochrome P450 2C19 (Homo sapiens, UniProt P33261); test: Inhibition of CYP2C19 in human liver microsomes using S-mephenytoin as substrate incubated for 45 mins in presence of NADPH by LC-MS/MS analysis; format: ADME, Microsome
Cytochrome P450 2C19, sequence (P33261 whole entry): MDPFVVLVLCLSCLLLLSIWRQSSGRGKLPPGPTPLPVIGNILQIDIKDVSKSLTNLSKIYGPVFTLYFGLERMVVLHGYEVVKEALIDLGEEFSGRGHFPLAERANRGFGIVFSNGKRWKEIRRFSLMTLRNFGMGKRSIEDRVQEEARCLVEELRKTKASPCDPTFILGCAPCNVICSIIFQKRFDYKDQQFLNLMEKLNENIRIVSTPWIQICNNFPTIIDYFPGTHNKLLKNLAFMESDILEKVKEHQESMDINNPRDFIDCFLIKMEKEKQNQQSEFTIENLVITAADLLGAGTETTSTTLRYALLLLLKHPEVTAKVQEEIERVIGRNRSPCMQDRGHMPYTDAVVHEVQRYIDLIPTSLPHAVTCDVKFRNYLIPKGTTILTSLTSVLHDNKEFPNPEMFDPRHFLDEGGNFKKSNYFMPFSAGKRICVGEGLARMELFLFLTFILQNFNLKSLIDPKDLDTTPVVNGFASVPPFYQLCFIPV

[7] = Metabolic stability in human hepatocytes assessed as intrinsic clearance at 2 uM measured for 120 mins by LC-MS analysis; format: ADME, cell-based, Hepatocyte; conditions: read-out: CLH
[8] = Plasma protein binding in mouse at 5 uM incubated for 5 hrs by rapid equilibrium dialysis method; format: ADME, cell-free; conditions: read-out: PPB (converted)
[9] = Plasma protein binding in dog at 5 uM incubated for 5 hrs by rapid equilibrium dialysis method; format: ADME, cell-free, Canis lupus familiaris; conditions: read-out: PPB (converted)
[10] = Plasma protein binding in human at 5 uM incubated for 5 hrs by rapid equilibrium dialysis method; format: ADME, cell-free; conditions: read-out: PPB
[11] = Cmax in Sprague-Dawley rat at 3 mg/kg, po or 1 mg/kg, iv measured for 24 hrs by LC-MS/MS analysis; format: ADME, organism-based; design: time 24 hrs, dose 3 mg/kg, route po; conditions: in vivo
[12] = Volume of distribution at steady state in Beagle dog at 1 mg/kg, po or 0.3 mg/kg, iv measured for 24 hrs by LC-MS/MS analysis; format: ADME, organism-based, Canis lupus familiaris; conditions: in vivo
[13] = Bioavailability in cynomolgus monkey at 1 mg/kg, po or 0.3 mg/kg, iv measured for 24 hrs by LC-MS/MS analysis; format: ADME, organism-based, Macaca fascicularis; conditions: in vivo
[14] = Toxicity in monkey assessed as optic nerve swelling measured after 28 days by IND-enabling study; design: species or system Macaca mulatta; conditions: rhesus monkey, in vivo, 672 h; time 28 day
[15] = target: Voltage-gated inwardly rectifying potassium channel KCNH2 (Homo sapiens, UniProt Q12809)
Voltage-gated inwardly rectifying potassium channel KCNH2, sequence (Q12809 whole entry): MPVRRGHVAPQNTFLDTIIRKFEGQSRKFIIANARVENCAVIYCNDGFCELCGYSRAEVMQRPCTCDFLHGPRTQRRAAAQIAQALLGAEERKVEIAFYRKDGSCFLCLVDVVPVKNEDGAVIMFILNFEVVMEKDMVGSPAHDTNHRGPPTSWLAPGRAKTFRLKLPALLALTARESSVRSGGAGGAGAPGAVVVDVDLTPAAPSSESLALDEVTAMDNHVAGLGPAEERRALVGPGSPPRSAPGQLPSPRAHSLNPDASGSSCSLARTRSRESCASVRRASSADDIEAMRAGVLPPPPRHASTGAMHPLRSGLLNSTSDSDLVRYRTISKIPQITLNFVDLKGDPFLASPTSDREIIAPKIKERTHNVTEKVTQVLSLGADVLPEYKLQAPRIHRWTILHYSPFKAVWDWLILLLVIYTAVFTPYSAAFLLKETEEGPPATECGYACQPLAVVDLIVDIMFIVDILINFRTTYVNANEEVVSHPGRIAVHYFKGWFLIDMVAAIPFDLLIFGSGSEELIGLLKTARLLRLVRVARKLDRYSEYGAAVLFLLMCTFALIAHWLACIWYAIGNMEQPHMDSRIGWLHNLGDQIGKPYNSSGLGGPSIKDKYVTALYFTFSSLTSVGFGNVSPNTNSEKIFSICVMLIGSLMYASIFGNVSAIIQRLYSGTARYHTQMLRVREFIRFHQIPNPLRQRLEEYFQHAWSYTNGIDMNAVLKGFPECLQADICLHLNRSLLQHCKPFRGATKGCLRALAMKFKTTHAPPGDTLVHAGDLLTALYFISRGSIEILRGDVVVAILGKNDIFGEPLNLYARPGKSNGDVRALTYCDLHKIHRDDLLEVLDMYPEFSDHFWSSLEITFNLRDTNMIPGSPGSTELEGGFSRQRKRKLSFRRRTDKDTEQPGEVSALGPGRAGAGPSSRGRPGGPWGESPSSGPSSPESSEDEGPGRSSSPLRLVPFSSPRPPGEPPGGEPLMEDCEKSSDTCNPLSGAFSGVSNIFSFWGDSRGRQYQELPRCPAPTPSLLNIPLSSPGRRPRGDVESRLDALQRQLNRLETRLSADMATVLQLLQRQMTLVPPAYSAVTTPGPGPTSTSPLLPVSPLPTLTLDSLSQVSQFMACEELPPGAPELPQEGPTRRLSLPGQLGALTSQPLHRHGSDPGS
Description: Inhibition of hERG expressed in CHO cells at -80 mV holding potential by QPatch automated electrophysiology assay

IC50 [1]: 107 nM
CLint scaled at 1 µM [2]: 3 mL/min/kg
Vd [3]: 4.5 L/kg
Cmax [4]: 6.4 µM
solubility thermodynamic at 1 h [5]: 38 µM (≈ 16.2 µg/mL)
solubility thermodynamic at 1 h [6]: 20.6 mM (≈ 8790 µg/mL)
IC50 (Cytochrome P450 2D6): > 10 µM
IC50 (Cytochrome P450 2C19): > 10 µM
CLint scaled at 2 µM [7]: 11 mL/min/kg
fraction unbound at 5 h, 5 µM [8]: 0.075
fraction unbound at 5 h, 5 µM [9]: 0.053
fraction unbound at 5 h, 5 µM [10]: 0.091
Cmax [11]: 1300 nM
Vdss [12]: 3.5 L/kg
bioavailability [13]: > 100%
SMILES: Nc1ncc(-c2cn(C34CC(F)(C3)C4)c([C@@H](O)C(F)(F)F)n2)cc1OC(F)(F)F
Activity [14]: Toxic
IC50 [15]: > 30 µM
